Test results published in patent US8815774B2, “Herbicidal composition and method of use thereof” (Syngenta Crop Protection LLC, priority 2006, dated 2014).

Tests used:
Type in all cases: in vivo
[1] = test system: Trifolium repens (white clover); test: Glasshouse trial, control of white clover, pre-emergence application
Procedure: (§1) A glasshouse trial was carried out. Large crabgrass seeds were sown into standard glasshouse potting mix (1:1 v/v Promix:Vero sand soil) contained in 10 cm square plastic pots. Treatments were replicated three times. Mesotrione (in the form Callisto® 480SE) was applied pre-emergence to large crabgrass (Digitaria sanguinalis) at either 12 g ai/ha or 24 g ai/ha with or without sulfentrazone (in the form Authority®). When used, sulfentrazone was applied at a rate of 140 g ai/ha or 280 g ai/ha. The adjuvant system was X-77 at 0.1% v/v in deionised water. 200 litres of herbicide/adjuvant system was used per hectare. General weed control was evaluated at 7 days after treatment (DAT). It is noted that all herbicides were applied at reduced field rates because herbicide effects are magnified in a glasshouse environment. Rates were chosen to give a 50 to 70% level of control with herbicides applied alone as this allows for detection of any synergistic effect when tank mixtures are used.
(§2) It is noted that control of large crabgrass with the higher rate of mesotrione alone was too high to allow for detection synergy when mesotrione was mixed with sulfentrazone. The lower rate of mesotrione was therefore used in this analysis. […] The results were evaluated using the Colby formula. The expected result for (A+B) is (A+B)−(A×B/100) where A and B are the ‘observed’ results for A and B on their own.
(§3) A glasshouse trial was set up as described in Example 1, except using carfentrazone instead of sulfentrazone, Trifolium repens (white clover) instead of large crabgrass, and different herbicide rates.

[2] = test system: Trifolium repens (white clover); test: Glasshouse trial, control of white clover, post-emergence application
Procedure: as §1, §2, §3
A glasshouse trial was set up as described in Example 2, except using applying the mixture post emergence rather than pre-emergence.

[3] = test system: large crabgrass (Digitaria sanguinalis); test: Glasshouse trial, control of large crabgrass, pre-emergence application
Procedure: as §1, with “used. It is noted that control of large crabgrass with the higher rate of mesotrione alone was too high to allow for detection synergy when mesotrione was mixed with sulfentrazone. The lower rate of mesotrione was therefore used in this analysis. […] The results were evaluated using the Colby formula. The expected result for (A+B) is (A+B)−(A×B/100) where A and B are the ‘observed’ results for A and B on their own.” for “used.”

[4] = carfentrazone 18 g ai/ha plus mesotrione 25 g ai/ha
[5] = carfentrazone 18 g ai/ha plus mesotrione 50 g ai/ha
[6] = carfentrazone 36 g ai/ha plus mesotrione 25 g ai/ha
[7] = carfentrazone 36 g ai/ha plus mesotrione 50 g ai/ha
[8] = carfentrazone 18 g ai/ha plus mesotrione 100 g ai/ha
[9] = carfentrazone 18 g ai/ha plus mesotrione 150 g ai/ha
[10] = carfentrazone 36 g ai/ha plus mesotrione 100 g ai/ha
[11] = carfentrazone 36 g ai/ha plus mesotrione 150 g ai/ha

| Compound | Actual control, Plus Mesotrione at 25 g ai/ha [1, 4] | Expected control, Plus Mesotrione at 25 g ai/ha [1, 4] | Actual control, Plus Mesotrione at 50 g ai/ha [1, 5] | Expected control, Plus Mesotrione at 50 g ai/ha [1, 5] | Actual control, Plus Mesotrione at 25 g ai/ha [1, 6] | Expected control, Plus Mesotrione at 25 g ai/ha [1, 6] | Actual control, Plus Mesotrione at 50 g ai/ha [1, 7] | Expected control, Plus Mesotrione at 50 g ai/ha [1, 7] | Actual control, Plus Mesotrione at 100 g ai/ha [2, 8] | Expected control, Plus Mesotrione at 100 g ai/ha [2, 8] | Actual control, Plus Mesotrione at 150 g ai/ha [2, 9] | Expected control, Plus Mesotrione at 150 g ai/ha [2, 9] | Actual control, Plus Mesotrione at 100 g ai/ha [2, 10] | Expected control, Plus Mesotrione at 100 g ai/ha [2, 10] | Actual control, Plus Mesotrione at 150 g ai/ha [2, 11] | Expected control, Plus Mesotrione at 150 g ai/ha [2, 11] | synergy (Colby formula and Student-Newman-Keuls multiple range test) ([3]; mesotrione 12 g ai/ha with sulfentrazone 140 g ai/ha) | Expected control (Colby formula), Plus Mesotrione at 12 g ai/ha ([3]; sulfentrazone 140 g ai/ha plus mesotrione 12 g ai/ha, 7 DAT) | Actual control, Plus Mesotrione at 12 g ai/ha ([3]; sulfentrazone 140 g ai/ha tank mixed with mesotrione 12 g ai/ha, 7 DAT) | control of large crabgrass, herbicide on its own ([3]; sulfentrazone alone (lower rate, 140 g ai/ha), 7 DAT) |
| --- | --- | --- | --- | --- | --- | --- | --- | --- | --- | --- | --- | --- | --- | --- | --- | --- | --- | --- | --- | --- |
| Cc1nn(-c2cc(CC(Cl)C(=O)O)c(Cl)cc2F)c(=O)n1C(F)F (centres unmarked) [Carfentrazone] | 55 | 50 | 75 | 62 | 73 | 49 | 85 | 61 | 70 | 43 | 93 | 65 | 72 | 53 | 93 | 71 |  |  |  |  |
| Cc1nn(-c2cc(NS(C)(=O)=O)c(Cl)cc2Cl)c(=O)n1C(F)F [Sulfentrazone, 2′,4′-dichloro-5′-(4-difluoromethyl-4,5-dihydro-3-methyl-5-oxo-1H-1,2,4-triazol-1-yl)methanesulfonanilide] |  |  |  |  |  |  |  |  |  |  |  |  |  |  |  |  | synergy was seen | 87.0 | 100 | 75% |
